Data taken from patent US20260232670A1, “TYRO3 SELECTIVE INHIBITORS AND USES THEREOF” (THE UNIVERSITY OF NORTH CAROLINA AT CHAPEL HILL, priority 2023, published 2026).

What was measured:
Assay type in all cases: biochemical
MERTK = target: T1, MERTK (Homo sapiens, UniProt Q12866); assay: Microfluidic capillary electrophoresis (MCE) kinase activity assay, Mer
T1 sequence (Q12866 21-999): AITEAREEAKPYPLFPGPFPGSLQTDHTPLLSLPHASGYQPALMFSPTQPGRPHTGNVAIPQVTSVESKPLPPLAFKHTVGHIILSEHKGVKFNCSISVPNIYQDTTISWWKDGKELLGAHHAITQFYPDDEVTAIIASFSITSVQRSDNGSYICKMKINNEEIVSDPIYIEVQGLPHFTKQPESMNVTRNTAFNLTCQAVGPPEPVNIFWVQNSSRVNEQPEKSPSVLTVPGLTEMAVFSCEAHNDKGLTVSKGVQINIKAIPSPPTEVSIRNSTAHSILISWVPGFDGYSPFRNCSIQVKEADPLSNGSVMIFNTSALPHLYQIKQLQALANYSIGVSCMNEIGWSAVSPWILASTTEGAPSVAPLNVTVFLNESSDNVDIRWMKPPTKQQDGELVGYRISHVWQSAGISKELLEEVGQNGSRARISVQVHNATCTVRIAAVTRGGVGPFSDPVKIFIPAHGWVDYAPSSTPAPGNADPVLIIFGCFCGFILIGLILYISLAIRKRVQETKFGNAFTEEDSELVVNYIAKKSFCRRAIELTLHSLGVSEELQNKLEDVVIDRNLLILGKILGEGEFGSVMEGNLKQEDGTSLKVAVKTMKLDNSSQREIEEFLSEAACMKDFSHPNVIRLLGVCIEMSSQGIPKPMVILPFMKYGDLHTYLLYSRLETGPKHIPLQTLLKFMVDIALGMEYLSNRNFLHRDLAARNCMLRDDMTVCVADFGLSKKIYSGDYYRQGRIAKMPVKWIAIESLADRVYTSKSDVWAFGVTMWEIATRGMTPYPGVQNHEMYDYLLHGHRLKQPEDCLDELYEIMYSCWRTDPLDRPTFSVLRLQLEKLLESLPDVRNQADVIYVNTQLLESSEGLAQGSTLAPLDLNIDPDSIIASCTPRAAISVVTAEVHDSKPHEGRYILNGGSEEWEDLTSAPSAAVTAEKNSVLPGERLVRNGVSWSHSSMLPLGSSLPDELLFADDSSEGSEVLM

TYRO3 = target: T2, TYRO3 (Homo sapiens, UniProt Q06418); assay: Microfluidic capillary electrophoresis (MCE) kinase activity assay, Tyro3
T2 sequence (Q06418 41-890): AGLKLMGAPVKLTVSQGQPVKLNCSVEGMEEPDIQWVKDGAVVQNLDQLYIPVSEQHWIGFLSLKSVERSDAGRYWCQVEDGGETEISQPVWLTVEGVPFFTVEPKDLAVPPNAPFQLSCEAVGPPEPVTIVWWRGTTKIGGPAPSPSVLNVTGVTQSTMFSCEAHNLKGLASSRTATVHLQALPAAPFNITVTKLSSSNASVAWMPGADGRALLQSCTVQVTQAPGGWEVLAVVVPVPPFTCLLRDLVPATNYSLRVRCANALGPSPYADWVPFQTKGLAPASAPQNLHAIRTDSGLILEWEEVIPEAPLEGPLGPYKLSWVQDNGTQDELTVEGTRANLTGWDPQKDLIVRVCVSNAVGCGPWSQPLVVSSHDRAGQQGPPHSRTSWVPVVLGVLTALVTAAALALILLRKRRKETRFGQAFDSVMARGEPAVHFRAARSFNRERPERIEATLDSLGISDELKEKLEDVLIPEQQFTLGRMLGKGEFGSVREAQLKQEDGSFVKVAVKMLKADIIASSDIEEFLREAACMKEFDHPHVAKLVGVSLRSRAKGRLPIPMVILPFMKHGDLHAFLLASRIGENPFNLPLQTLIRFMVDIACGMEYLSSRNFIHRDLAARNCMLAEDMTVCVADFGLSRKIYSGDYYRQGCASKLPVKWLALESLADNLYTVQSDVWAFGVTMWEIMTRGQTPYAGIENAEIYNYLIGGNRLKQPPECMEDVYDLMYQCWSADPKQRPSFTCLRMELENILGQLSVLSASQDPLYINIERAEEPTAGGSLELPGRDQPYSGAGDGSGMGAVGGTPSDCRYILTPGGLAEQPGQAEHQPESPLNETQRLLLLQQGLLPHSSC

AXL = target: T3, AXL (Homo sapiens, UniProt P30530); assay: Microfluidic capillary electrophoresis (MCE) kinase activity assay, Axl; settings: Table 2; MCE assay, ATP at Km
T3 sequence (P30530 26-894): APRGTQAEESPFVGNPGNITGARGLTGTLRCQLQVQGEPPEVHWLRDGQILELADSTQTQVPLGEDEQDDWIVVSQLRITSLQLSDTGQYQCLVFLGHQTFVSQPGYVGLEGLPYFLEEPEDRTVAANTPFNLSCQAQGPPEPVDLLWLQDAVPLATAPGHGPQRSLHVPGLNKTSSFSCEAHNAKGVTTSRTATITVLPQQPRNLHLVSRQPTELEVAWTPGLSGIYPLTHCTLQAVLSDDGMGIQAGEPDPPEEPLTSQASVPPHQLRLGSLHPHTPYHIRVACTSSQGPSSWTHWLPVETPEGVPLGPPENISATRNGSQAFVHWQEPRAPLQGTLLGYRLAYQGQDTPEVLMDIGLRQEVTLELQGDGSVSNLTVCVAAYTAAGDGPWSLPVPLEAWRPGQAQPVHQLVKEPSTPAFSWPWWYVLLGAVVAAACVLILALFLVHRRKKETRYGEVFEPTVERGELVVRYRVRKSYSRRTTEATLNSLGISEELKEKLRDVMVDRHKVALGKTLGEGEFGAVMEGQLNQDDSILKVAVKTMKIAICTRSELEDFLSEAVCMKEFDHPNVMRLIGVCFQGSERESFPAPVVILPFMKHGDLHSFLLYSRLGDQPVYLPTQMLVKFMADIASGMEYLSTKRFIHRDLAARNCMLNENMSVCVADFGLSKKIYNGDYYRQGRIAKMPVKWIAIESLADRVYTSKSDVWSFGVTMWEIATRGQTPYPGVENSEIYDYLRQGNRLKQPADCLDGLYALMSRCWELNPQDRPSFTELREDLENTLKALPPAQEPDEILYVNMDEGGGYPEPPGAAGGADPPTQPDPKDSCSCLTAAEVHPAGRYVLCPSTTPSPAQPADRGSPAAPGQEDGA

SMILES	IC50 (MERTK; Table 2, MCE assay, ATP at Km) [µM]	IC50 (TYRO3; Table 2, MCE assay, ATP at Km) [µM]	IC50 (AXL) [µM]	further results
O[C@H]1CC[C@H](n2cc(-c3ccc(CN4CCC(F)(F)CC4)cc3)c3cnc(Nc4cc(C(F)(F)F)cc(C(F)(F)F)c4)nc32)CC1 [Compound 10]	0.1 to 1	0.01 to 0.1	0.1 to 1	–
O[C@H]1CC[C@H](n2cc(-c3ccc(CNCCN4CCOCC4)cc3)c3cnc(Nc4cc(C(F)(F)F)cc(C(F)(F)F)c4)nc32)CC1 [Compound 19]	0.1 to 1	< 0.01	0.1 to 1	–
CN(C)C1CCN(Cc2ccc(-c3cn([C@H]4CC[C@H](O)CC4)c4nc(Nc5cc(F)cc(Cl)c5)ncc34)cc2)CC1 [Compound 22]	< 0.01	< 0.01	0.01 to 0.1	–
O[C@H]1CC[C@H](n2cc(-c3ccc(CN4CCC(F)(F)CC4)cc3)c3cnc(Nc4cc(F)cc(Cl)c4)nc32)CC1 [Compound 23]	0.01 to 0.1	< 0.01	0.1 to 1	–
CC(C)(C)OC(=O)N1CCN(Cc2ccc(-c3cn([C@H]4CC[C@H](O)CC4)c4nc(Nc5cc(C(F)(F)F)cc(C(F)(F)F)c5)ncc34)cc2)CC1 [Compound 26]	1 to 30	0.01 to 0.1	1 to 30	–
O[C@H]1CC[C@H](n2cc(-c3ccc(CN4CCNCC4)cc3)c3cnc(Nc4cc(C(F)(F)F)cc(C(F)(F)F)c4)nc32)CC1 [Compound 27]	0.1 to 1	< 0.01	0.1 to 1	–
CN1CCC(Nc2ccc(-c3cn([C@H]4CC[C@H](O)CC4)c4nc(Nc5cc(F)cc(Cl)c5)ncc34)cc2)CC1 [Compound 56]	–	–	–	IC50 (MERTK; Table 8): < 0.01 µM; IC50 (TYRO3; Table 8): < 0.01 µM
CN1CCN(S(=O)(=O)c2ccc(-c3cn([C@H]4CC[C@H](O)CC4)c4nc(Nc5cc(F)cc(Cl)c5)ncc34)cc2)CC1 [Compound 63]	–	–	–	IC50 (MERTK; Table 9): < 0.01 µM; IC50 (TYRO3; Table 9): < 0.01 µM
CN1CCN(Cc2ccc(-c3cn(C4CCOCC4)c4nc(Nc5cc(F)cc(Cl)c5)ncc34)cc2)CC1 [Compound 160]	–	–	–	IC50 (MERTK; Table 10): < 0.01 µM; IC50 (TYRO3; Table 10): < 0.01 µM
CN1CCN(Cc2ccc(-c3cn([C@H]4CC[C@H](NC(=O)OC(C)(C)C)CC4)c4nc(Nc5cc(C(F)(F)F)cc(C(F)(F)F)c5)ncc34)cc2)CC1 [Compound 161]	–	–	–	IC50 (TYRO3; Table 10): 0.01 to 0.1 µM
CN1CCN(Cc2ccc(-c3cn([C@H]4CC[C@H](NC(=O)OC(C)(C)C)CC4)c4nc(Nc5cc(F)cc(Cl)c5)ncc34)cc2)CC1 [Compound 163]	–	–	–	IC50 (MERTK; Table 10): 0.1 to 1 µM; IC50 (TYRO3; Table 10): 0.01 to 0.1 µM
CN1CCN(Cc2ccc(-c3cn([C@H]4CC[C@H](N)CC4)c4nc(Nc5cc(F)cc(Cl)c5)ncc34)cc2)CC1 [Compound 164]	–	–	–	IC50 (MERTK; Table 10): < 0.01 µM; IC50 (TYRO3; Table 10): < 0.01 µM
CN1CCN(Cc2ccc(-c3cn(C4CC(CO)(CO)C4)c4nc(Nc5cc(C(F)(F)F)cc(C(F)(F)F)c5)ncc34)cc2)CC1 [Compound 165]	–	–	–	IC50 (MERTK; Table 10): 1 to 30 µM; IC50 (TYRO3; Table 10): < 0.01 µM
CN1CCN(Cc2ccc(-c3cc(C4CCC5(CC4)OCCO5)n4nc(Nc5cc(F)cc(Cl)c5)ncc34)cc2)CC1 [Compound 170, N-(3-chloro-5-fluorophenyl)-5-(4-((4-methylpiperazin-1-yl)methyl)phenyl)-7-(1,4-dioxaspiro[4.5]decan-8-yl)pyrrolo[2,1-f][1,2,4]triazin-2-amine]	–	–	–	IC50 (MERTK; Table 11): 0.01 to 0.1 µM; IC50 (TYRO3; Table 11): < 0.01 µM
CN1CCN(Cc2ccc(-c3cc(C4CCC(=O)CC4)n4nc(Nc5cc(F)cc(Cl)c5)ncc34)cc2)CC1 [Compound 171, 4-(2-((3-chloro-5-fluorophenyl)amino)-5-(4-((4-methylpiperazin-1-yl)methyl)phenyl)pyrrolo[2,1-f][1,2,4]triazin-7-yl)cyclohexan-1-one]	–	–	–	IC50 (MERTK; Table 11): 0.01 to 0.1 µM; IC50 (TYRO3; Table 11): < 0.01 µM
CN1CCN(Cc2ccc(-c3cn([C@H]4CC[C@H](O)CC4)c4nc(Nc5cc(F)cc(Cl)c5)ncc34)cn2)CC1 [Compound 172]	–	–	–	IC50 (MERTK; Table 12): < 0.01 µM; IC50 (TYRO3; Table 12): < 0.01 µM
CN1CCN(Cc2ccc(-c3cn([C@H]4CC[C@H](O)CC4)c4nc(Nc5cc(C(F)(F)F)cc(C(F)(F)F)c5)ncc34)cn2)CC1 [Compound 173]	–	–	–	IC50 (MERTK; Table 12): 0.1 to 1 µM; IC50 (TYRO3; Table 12): < 0.01 µM

Now from value to molecule, other results behind:

IC50 (MERTK; Table 2, MCE assay, ATP at Km) [µM]	IC50 (TYRO3; Table 2, MCE assay, ATP at Km) [µM]	IC50 (AXL) [µM]	SMILES	further results
< 0.01	< 0.01	0.01 to 0.1	CN1CCN(Cc2ccc(-c3cn([C@H]4CC[C@H](O)CC4)c4nc(Nc5cc(F)cc(Cl)c5)ncc34)cc2)CC1 [Compound 7]	–
0.01 to 0.1	< 0.01	0.01 to 0.1	CN1CCN(Cc2ccc(-c3cn([C@H]4CC[C@H](O)CC4)c4nc(Nc5cc(Cl)c(F)c(Cl)c5)ncc34)cc2)CC1 [Compound 8]	–
< 0.01	< 0.01	0.01 to 0.1	CN1CCCN(Cc2ccc(-c3cn([C@H]4CC[C@H](O)CC4)c4nc(Nc5cc(F)cc(Cl)c5)ncc34)cc2)CC1 [Compound 24]	–
0.1 to 1	< 0.01	0.1 to 1	O[C@H]1CC[C@H](n2cc(-c3ccc(CN4CCSCC4)cc3)c3cnc(Nc4cc(F)cc(Cl)c4)nc32)CC1 [Compound 25]	–
< 0.01	< 0.01	–	CN1CCN(Cc2ccc(-c3cn([C@H]4CC[C@H](O)CC4)c4nc(Nc5cccc(C(F)(F)F)c5)ncc34)cc2)CC1 [Compound 147]	–
0.01 to 0.1	< 0.01	–	CN1CCN(Cc2ccc(-c3cn([C@H]4CC[C@H](O)CC4)c4nc(Nc5cc(Cl)cc(C(F)(F)F)c5)ncc34)cc2)CC1 [Compound 148]	–
< 0.01	< 0.01	–	CN1CCN(Cc2ccc(-c3cn([C@H]4CC[C@H](O)CC4)c4nc(Nc5cc(F)cc(C(F)(F)F)c5)ncc34)cc2)CC1 [Compound 149]	–
< 0.01	< 0.01	–	CC1CCN(Cc2ccc(-c3cn([C@H]4CC[C@H](O)CC4)c4nc(Nc5cc(F)cc(Cl)c5)ncc34)cc2)CC1 [Compound 151]	–
< 0.01	< 0.01	–	CN1CCN(Cc2ccc(-c3cn([C@H]4CC[C@H](O)CC4)c4nc(Nc5ccsc5)ncc34)cc2)CC1 [Compound 174]	–
< 0.01	< 0.01	–	CN1CCN(Cc2ccc(-c3cn([C@H]4CC[C@H](O)CC4)c4nc(Nc5cncc(Cl)c5)ncc34)cc2)CC1 [Compound 175]	–
